Values after ≈ are worked out from the molar mass of the structure shown. Values belong to the compound of their own block, whether it stands above or below them.
How the values were obtained:
fungi = test: in vitro antifungal (antimycotic) activity, general statement; format: cell-based; conditions: by-product; test not specified
Excerpt: (§1) The fused pyrazolotetrathiepins of the invention are useful as antimycotic agents. The data is a result of different state of the art protocols, which employ either agar dilution or microtiter broth dilution techniques.

[1] = tested on: Candida albicans (CAND-1); test: Protocol 5: microtiter broth dilution MIC/MFC, EMEM broth pH 7.4; format: cell-based, Candida albicans ATCC 11651
Excerpt: as §1
(§2) The test organisms used are two yeasts, Candida albicans ATCC 11651 (CAND-1), C. albicans ATCC e10231 (CAND-2) and two dermatophyte strains. Microsporum gypseum ATCC e9083 (MICRO-1) and Trichophyton rubrum ATCC 18756 (TRICH-1). These organisms are standardized to a concentration of 10^7 organisms/mL, aliquoted and frozen at -70°.
(§3) The compounds are dissolved in dimethyl sulfoxide (DMSO) and tested at specific concentrations required for the particular assay.
(§4) Appropriate standards are included with each assay. Their minimal inhibitory concentrations (MIC) values are shown in Table 4 according to the particular protocol used. Stock solutions of standard agents are stored at -70° and diluted the day of the assay.
(§5) Protocols 4 and 5 both utilize a standard microtiter broth dilution method described by Barry (Antimicrobic Susceptibilty Test: Principles and Practices, Lea and Febiger, 1976) but each uses a different medium. Protocol 4 uses Yeast Nitrogen Base broth pH 7.0 [Shadomy, S. Applied Microbiology, 17, 871-877 (1969)] while protocol 5 uses EMEM broth pH 7.4. The test organisms, CAND-1 and CAND-2 are diluted in the appropriate broth to achieve an inoculum of 1×10^4 CFUs/mL.
(§6) The compounds are tested from 100 μg/mL-0.4 μg/mL in 10-two fold serial dilutions and the assay is incubated at 37°, 5% CO2 for 24 hrs. MFC's are then determined as previously described but the plates are incubated under the conditions appropriate for Candida spp.

[2] = tested on: Microsporum gypseum (MICRO-1); test: Protocol 3: microtiter broth dilution MIC/MFC for dermatophytes, EMEM; format: cell-based, Microsporum gypseum ATCC e9083; conditions: Nannizzia gypsea
Excerpt: as §1, §2, §3, §4
(§7) Protocol 3 is a microtiter broth dilution assay that has been adapted for dermatophytes using EMEM and is described by Granade and Artis, J. Clin. Micro., 6, 1043-1047 (1982). Both strains of dermatophytes, MICRO-1 and TRICH-1 are diluted in broth to achieve an inoculum of 1×10^4 spores/mL. The compound is serially diluted from 100 μg/mL to 0.4 μg/mL in 10-two fold dilutions. The test is incubated at 30° for 72 hrs and the MIC values are determined. The minimum fungicidal concentration (MFC) assay is performed using the 72 hr microtiter plates. (Szoka, F., Mycology Observer, November-December, 1983). These plates are shaken vigorously and lμl/broth well is transferred with a micropipetter onto the appropirate well on a 24 well agar (EMEM) plate. These plates are then incubated at 30° for 72 hrs and read for MFC's.

[3] = tested on: Candida albicans (CAND-2); test: Protocol 5: microtiter broth dilution MIC/MFC, EMEM broth pH 7.4; format: cell-based, C. albicans ATCC e10231
Excerpt: as §1, §2, §3, §4, §5, §6

[4] = tested on: Trichophyton rubrum (TRICH-1); test: Protocol 3: microtiter broth dilution MIC/MFC for dermatophytes, EMEM; format: cell-based, Trichophyton rubrum ATCC 18756
Excerpt: as §1, §2, §3, §4, §7

[5] = tested on: Trichophyton rubrum (TRICH-1); test: Protocol 1: agar dilution MIC, Sabouraud dextrose agar; format: cell-based, Trichophyton rubrum ATCC 18756; conditions: Protocol 1, mean of five determinations ± standard deviation, read-out: MIC TRICH-1 of standards
Excerpt: as §1, §2, §3
(§8) Appropriate standards are included with each assay. Their minimal inhibitory concentrations (MIC) values are shown in Table 4 according to the particular protocol used. Stock solutions of standard agents are stored at -70° and diluted the day of the assay. […]
(§9) The compound is tested at four specific concentrations within the range of 100 μg/mL-0.04 μg/mL and is incorporated directly into 20 mL molten agar (50°). […] The plates are incubated at ambient temperature for seven days and the MIC values determined.

[6] = tested on: Trichophyton rubrum (TRICH-1); test: Protocol 2: agar dilution MIC, Eagle's Minimum Essential Medium Agar (EMEM); format: cell-based, Trichophyton rubrum ATCC 18756
Excerpt: as §1, §2, §3, §4
(§10) Protocols 1 & 2 use a modification of the agar dilution method (Barry, A. L., The Antimicrobic Susceptibility Test: Principles and Practices, Lea and Febiger, 1976) with either Sabouraud dextrose agar (protocol 1) or Eagle's Minimum Essential Medium Agar (EMEM) (protocol 2).
(§11) The compound is tested at four specific concentrations within the range of 100 μg/mL-0.04 μg/mL and is incorporated directly into 20 mL molten agar (50°). The plates are then inoculated with the spore suspensions of MICRO-1 and TRICH-1 at 5×10^6 spores/mL using a multi point inoculator. The plates are incubated at ambient temperature for seven days and the MIC values determined.

[7] = tested on: Microsporum gypseum (MICRO-1); test: as above; format: cell-based, Microsporum gypseum ATCC e9083; conditions: Nannizzia gypsea
Excerpt: as §1, §2, §3, §4, §10, §11

[8] = tested on: Microsporum gypseum (MICRO-1); test: Protocol 1: agar dilution MIC, Sabouraud dextrose agar; format: cell-based, Microsporum gypseum ATCC e9083; conditions: Nannizzia gypsea; Protocol 1; mean of five determinations ± standard deviation; read-out: MIC MICRO-1 of standards
Excerpt: as §1, §2, §3, §8, §9

[9] = tested on: Candida albicans (CAND-1); test: In vitro dilution MIC, protocol not given; format: cell-based, Candida albicans ATCC 11651; conditions: up to 100 μg/mL
Excerpt: as §1, §2, §3
as §5, with “The test organisms, CAND-1 and CAND-2 are diluted in the appropriate broth to achieve an inoculum of 1×10^4 CFUs/mL.” left out
as §6

[10] = tested on: Candida albicans (CAND-2); test: In vitro dilution MIC, protocol not given; format: cell-based, C. albicans ATCC e10231; conditions: up to 100 μg/mL
Excerpt: as §1, §2, §3
as §5, with “The test organisms, CAND-1 and CAND-2 are diluted in the appropriate broth to achieve an inoculum of 1×10^4 CFUs/mL.” left out
as §6

[11] = tested on: Candida albicans (CAND-2); test: Protocol 4: microtiter broth dilution MIC, Yeast Nitrogen Base broth pH 7.0; format: cell-based, C. albicans ATCC e10231; conditions: Protocol 4; mean of five determinations ± standard deviation
Excerpt: as §1, §2, §3, §4, §5, §6

[12] = tested on: Candida albicans (CAND-1); test: as above; format: cell-based, Candida albicans ATCC 11651; conditions: Protocol 4; mean of five determinations ± standard deviation
Excerpt: as §1, §2, §3, §4, §5, §6

[13] = Protocol 5, mean of five determinations ± standard deviation

Compound: CC1(C)SSc2cn(-c3ccccc3)nc2SS1 [3,3-dimethyl-7-phenyl-1,2,4,5-pyrazolotetrathiepin]
activity (in words) (fungi): inactive

Compound: Cn1cc2c(n1)SSC(C)(C)SS2 [Example 4, 3,3-Dimethyl-7-methyl-1,2,4,5-pyrazolotetrathiepin]
MIC ([1]; Candida albicans, Protocol 5, 37°, 5% CO2, 24 hrs, read-out: MIC CAND-1): 25 µg/mL (≈ 99.8 µM)
MFC ([1]; Candida albicans, Protocol 5, in brackets, read-out: MFC CAND-1 (minimum fungicidal concentration)): 50 µg/mL (≈ 200 µM)
MIC ([2]; Protocol 3, 30°, 72 hrs, read-out: MIC MICRO-1): 12.5 µg/mL (≈ 49.9 µM)
MFC ([2]; Protocol 3, in brackets, subculture on EMEM agar 30°, 72 hrs, read-out: MFC MICRO-1 (minimum fungicidal concentration)): 25 µg/mL (≈ 99.8 µM)
MIC ([3]; Candida albicans, Protocol 5, 37°, 5% CO2, 24 hrs, read-out: MIC CAND-2): 25 µg/mL (≈ 99.8 µM)
MFC ([3]; Candida albicans, Protocol 5, in brackets, read-out: MFC CAND-2 (minimum fungicidal concentration)): 50 µg/mL (≈ 200 µM)
MIC ([4]; Protocol 3, 30°, 72 hrs, read-out: MIC TRICH-1): 12.5 µg/mL (≈ 49.9 µM)
MFC ([4]; Protocol 3, in brackets, subculture on EMEM agar 30°, 72 hrs, read-out: MFC TRICH-1 (minimum fungicidal concentration)): 25 µg/mL (≈ 99.8 µM)

Further lines, results first:

MIC [5]: 1.8 ± 0.7 µg/mL (≈ 5.1 µM)
MIC ([6]; Protocol 2, mean of five determinations ± standard deviation, read-out: MIC TRICH-1 of standards): 9.4 ± 4 µg/mL (≈ 26.6 µM)
MIC ([2]; Protocol 3, mean of five determinations ± standard deviation, read-out: MIC MICRO-1 of standards): 5.4 ± 2 µg/mL (≈ 15.3 µM)
MIC ([4]; Protocol 3, mean of five determinations ± standard deviation, read-out: MIC TRICH-1 of standards): 6.3 µg/mL (≈ 17.9 µM)
MIC ([7]; Protocol 2, mean of five determinations ± standard deviation, read-out: MIC MICRO-1 of standards): 4.5 ± 3 µg/mL (≈ 12.8 µM)
MIC [8]: 2 ± 0.7 µg/mL (≈ 5.67 µM)
Compound: COC1=CC(=O)C[C@@H](C)[C@]12Oc1c(Cl)c(OC)cc(OC)c1C2=O [Griseofulvin]

MIC CAND-1 (in words) [9]: Inactive at 100 μg/mL
MIC ([6]; 168 h, Protocol 2, ambient temperature, seven days, read-out: MIC TRICH-1): 1 µg/mL (≈ 3.2 µM)
MIC CAND-2 (in words) [10]: Inactive at 100 μg/mL
MIC ([7]; 168 h, Protocol 2, ambient temperature, seven days, read-out: MIC MICRO-1): 1 µg/mL (≈ 3.2 µM)
Compound: CC1(C)SSSc2cn(-c3ccccc3)nc2S1 [Example 3, 4,4-Dimethyl-7-phenyl-1,2,3,5-pyrazolotetrathiepin]

MIC CAND-2 of standards [11]: 0.5 ± 0.3 µg/mL
MIC CAND-1 of standards [1, 13]: 0.5 ± 0.3 µg/mL
MIC CAND-1 of standards [12]: 0.6 ± 0.2 µg/mL
MIC CAND-2 of standards [3, 13]: 0.7 ± 0.3 µg/mL
Compound: C[C@@H]1[C@H](O)[C@@H](C)/C=C/C=C/C=C/C=C/C=C/C=C/C=C/[C@H](O[C@@H]2O[C@H](C)[C@@H](O)[C@H](N)[C@@H]2O)C[C@@H]2O[C@](O)(C[C@@H](O)C[C@@H](O)[C@H](O)CC[C@@H](O)C[C@@H](O)CC(=O)O[C@H]1C)C[C@H](O)[C@H]2C(=O)O [Amphotericin B]

Reference: patent US4611001A, “Antimycotic pyrazolotetrathiepins” (E. I. Du Pont de Nemours and Company, priority 1985, dated 1986)
